Paper PMC6367708 (Journal of medicinal chemistry, 2018)

Tests used:
CYP17A1 [1] = biological target: T1, CYP17A1 (Homo sapiens, UniProt P05093); test: Inhibition of CYP17A1-mediated progesterone 17α-hydroxylation; assay type: biochemical; conditions: for increase in IC50 for CYP17A1: relative to abiraterone
T1 sequence (P05093 with tags, fused parts or gaps limits assumed): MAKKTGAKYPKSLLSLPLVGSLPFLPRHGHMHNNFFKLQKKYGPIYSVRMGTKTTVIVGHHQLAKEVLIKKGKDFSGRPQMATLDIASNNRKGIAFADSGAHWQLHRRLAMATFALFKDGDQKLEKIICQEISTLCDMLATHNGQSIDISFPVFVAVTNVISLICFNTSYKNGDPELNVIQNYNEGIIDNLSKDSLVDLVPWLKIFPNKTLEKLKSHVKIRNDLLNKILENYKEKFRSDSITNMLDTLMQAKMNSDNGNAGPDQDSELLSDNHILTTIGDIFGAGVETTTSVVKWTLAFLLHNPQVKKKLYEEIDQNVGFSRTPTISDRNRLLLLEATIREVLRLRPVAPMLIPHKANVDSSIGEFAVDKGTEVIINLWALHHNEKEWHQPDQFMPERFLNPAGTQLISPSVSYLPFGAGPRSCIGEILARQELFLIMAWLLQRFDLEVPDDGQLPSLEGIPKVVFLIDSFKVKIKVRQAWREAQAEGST

CYP21A2 [2] = biological target: T2, CYP21A2 (Homo sapiens, UniProt P08686); test: Inhibition of CYP21A2-mediated progesterone 21-hydroxylation; assay type: biochemical
T2 sequence (P08686 with tags, fused parts or gaps): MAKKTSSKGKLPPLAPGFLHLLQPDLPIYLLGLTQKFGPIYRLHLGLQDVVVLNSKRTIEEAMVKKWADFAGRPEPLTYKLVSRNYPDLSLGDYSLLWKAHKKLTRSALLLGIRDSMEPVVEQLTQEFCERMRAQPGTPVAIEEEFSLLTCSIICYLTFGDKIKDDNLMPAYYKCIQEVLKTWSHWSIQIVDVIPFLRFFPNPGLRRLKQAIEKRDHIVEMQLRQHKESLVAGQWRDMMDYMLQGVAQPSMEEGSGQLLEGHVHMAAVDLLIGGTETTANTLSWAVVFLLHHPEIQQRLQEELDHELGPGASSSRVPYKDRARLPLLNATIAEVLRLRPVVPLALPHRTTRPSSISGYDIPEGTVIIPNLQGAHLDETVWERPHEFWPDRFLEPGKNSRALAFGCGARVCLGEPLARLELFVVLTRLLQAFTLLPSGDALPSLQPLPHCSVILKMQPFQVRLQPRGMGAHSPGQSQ

CYP17A1 [3] = biological target: T1, CYP17A1; conditions: reported; cited from earlier work
CYP21A2 [4] = test: Inhibition of CYP21A2-mediated progesterone 21-hydroxylation; assay type: biochemical, human

Which results are given for `C[C@]12CC[C@H](O)CC1=CC[C@@H]1[C@@H]2CC[C@]2(C)C(c3ccccc3)=CC[C@@H]12` [3b, 17-Phenylandrosta-5,16-dien-3β-ol]?
increase in IC50 for CYP17A1 (CYP17A1 [1]): more than 4,000 fold; increase in IC50 for CYP21A2 (CYP21A2 [2]; relative to abiraterone): > 20 fold

For `C[C@]12CC[C@H]3[C@@H](C[C@@H]4O[C@@]45C[C@@H](O)CC[C@]35C)[C@@H]1CC=C2c1cccnc1` [6b, 5α,6α-Epoxy-17-(3-pyridyl)androst-16-en-3β-ol], which IC50 (CYP17A1 [1]) is on record?
The IC50 was 7.83 ± 0.92 nM.

And the IC50 (CYP21A2 [2])?
The IC50 was 42.1 ± 8.5 nM.

Which IC50 (CYP17A1 [1]) does the source give for `C[C@]12CC[C@H](O)C[C@@H]1C(=NO)C[C@@H]1[C@@H]2CC[C@]2(C)C(c3cccnc3)=CC[C@@H]12` [13b, 3β-Hydroxy-17-(3-pyridyl)-5α-androst-16-en-6-one oxime] here?
Its IC50 is 16.5 ± 2.5 nM.

And the “increase in IC50 for CYP17A1” value (CYP17A1 [1])?
The value was “ca. 3 fold”.

What about the IC50 (CYP21A2 [2]) of the same compound?
Its IC50 is 1390 ± 120 nM.

What about the “increase in IC50 for CYP21A2” value (CYP21A2 [2]; relative to abiraterone) of the same compound?
The value was 43 fold.

For `C[C@]12CC[C@H](O)C[C@@H]1NC(=O)C[C@@H]1[C@@H]2CC[C@]2(C)C(c3cccnc3)=CC[C@@H]12` [14b, 6-Aza-7-oxo-17-(3-pyridyl)-B-homo-5α-androst-16-en-3β-ol], which “selectivity for CYP17A1 inhibition over CYP21A2 inhibition” value (CYP17A1 [1]; progesterone hydroxylation reactions) is on record?
Its value is “ca. 16 fold”.

Which results are given for `C[C@]12CCC(=O)C=C1CC[C@@H]1[C@@H]2CC[C@]2(C)C(c3cccnc3)=CC[C@@H]12` [compound 4, 17-(3-Pyridyl)androsta-4,16-dien-3-one]?
inhibition of CYP17A1 (CYP17A1 [3]): comparably to abiraterone itself; selectivity for CYP21A2 over CYP17A1 (CYP21A2 [4]): 8.8 times; decrease in the IC50 for CYP21A2 (CYP21A2 [2]; relative to abiraterone): 46 fold

For `C[C@]12CC[C@H](O)CC1=C(C#N)C[C@@H]1[C@@H]2CC[C@]2(C)C(c3cccnc3)=CC[C@@H]12` [compound 7, 3β-Hydroxy-17-(3-pyridyl)androsta-5,16-dien-6-carbonitrile], which “increase in IC50 for CYP17A1” value (CYP17A1 [1]) is on record?
The value was 3 fold.

What does the source list for `C[C@]12CC[C@H](O)CC1=C(C(N)=O)C[C@@H]1[C@@H]2CC[C@]2(C)C(c3cccnc3)=CC[C@@H]12` [compound 8, 3β-Hydroxy-17-(3-pyridyl)androsta-5,16-dien-6-carboxamide]?
increase in IC50 for CYP17A1 (CYP17A1 [1]): 4.6 fold; increase in IC50 for CYP21A2 (CYP21A2 [2]; relative to abiraterone): 20 fold
